Results published in publication PMC5218480 (PLoS ONE, 2017).

Test system: MV-4-11 cells
Assay: Gene expression microarray analysis (Affymetrix PrimeView) and GSEA
Type: cell-based, human
Parameters: RFU PODN (11730768_x_at) / Fold change /veh PODN (11730768_x_at) / RFU LINC00158 (11744669_a_at) / Fold change /veh LINC00158 (11744669_a_at) / RFU DUSP10 (11751237_a_at) / Fold change /veh DUSP10 (11751237_a_at) / RFU ID3 (11757404_x_at) / Fold change /veh ID3 (11757404_x_at) / RFU PLEKHG5 (11737974_s_at) / Fold change /veh PLEKHG5 (11737974_s_at) / RFU LRRC4B (11730491_at) / Fold change /veh LRRC4B (11730491_at) / RFU GIMAP4 (11747438_a_at) / Fold change /veh GIMAP4 (11747438_a_at) / RFU KRT8 (11758183_x_at) / Fold change /veh KRT8 (11758183_x_at) / RFU CNN1 (11734310_a_at) / Fold change /veh CNN1 (11734310_a_at) / RFU VPS37D (11726825_at) / Fold change /veh VPS37D (11726825_at) / RFU C10orf10 (11716522_x_at) / Fold change /veh C10orf10 (11716522_x_at) / RFU KIR2DL2 /// KIR2DL4 /// KIR2DL5A /// KIR2DL5B /// KIR2DS1 /// KIR2DS2 /// KIR2DS3 /// KIR2DS4 /// KIR3DL3 /// KIR3DL3 /// KIR3DS1 (11738374_at) / Fold change /veh KIR2DL2 /// KIR2DL4 /// KIR2DL5A /// KIR2DL5B /// KIR2DS1 /// KIR2DS2 /// KIR2DS3 /// KIR2DS4 /// KIR3DL3 /// KIR3DL3 /// KIR3DS1 (11738374_at) / RFU C1QL1 (11718748_at) / Fold change /veh C1QL1 (11718748_at) / RFU TMPRSS4 (11747572_a_at) / Fold change /veh TMPRSS4 (11747572_a_at) / RFU HAMP (11756126_x_at) / Fold change /veh HAMP (11756126_x_at) / RFU RNFT2 (11725882_a_at) / Fold change /veh RNFT2 (11725882_a_at) / RFU NR4A2 (11747474_a_at) / Fold change /veh NR4A2 (11747474_a_at) / RFU ABCC12 (11746883_a_at) / Fold change /veh ABCC12 (11746883_a_at) / RFU TMEM136 (11760407_x_at) / Fold change /veh TMEM136 (11760407_x_at) / RFU CLDN22 /// WWC2 (11732394_at) / Fold change /veh CLDN22 /// WWC2 (11732394_at) / RFU HLA-DPB1 (11760878_x_at) / Fold change /veh HLA-DPB1 (11760878_x_at) / RFU SPINT1 (11716480_a_at) / Fold change /veh SPINT1 (11716480_a_at) / RFU GAP43 (11754022_s_at) / Fold change /veh GAP43 (11754022_s_at) / RFU A4GNT (11735810_at) / Fold change /veh A4GNT (11735810_at) / RFU PRB3 (11715151_x_at) / Fold change /veh PRB3 (11715151_x_at) / RFU TUBB4B (11761932_at) / Fold change /veh TUBB4B (11761932_at) / RFU CAPN14 (11732068_a_at) / Fold change /veh CAPN14 (11732068_a_at) / RFU TMCC2 (11721928_a_at) / Fold change /veh TMCC2 (11721928_a_at) / RFU IRGQ (11745062_a_at) / Fold change /veh IRGQ (11745062_a_at) / RFU FAM174B (11720279_a_at) / Fold change /veh FAM174B (11720279_a_at) / RFU TMPRSS4 (11748680_a_at) / Fold change /veh TMPRSS4 (11748680_a_at) / RFU FAM212B (11763350_a_at) / Fold change /veh FAM212B (11763350_a_at) / RFU PLEKHG5 (11743358_a_at) / Fold change /veh PLEKHG5 (11743358_a_at) / RFU ZSCAN30 (11745921_a_at) / Fold change /veh ZSCAN30 (11745921_a_at) / RFU CMKLR1 (11741424_a_at) / Fold change /veh CMKLR1 (11741424_a_at) / RFU LOC101060620 /// MAPK8IP1 (11723275_at) / Fold change /veh LOC101060620 /// MAPK8IP1 (11723275_at) / RFU SPTSSB (11747773_x_at) / Fold change /veh SPTSSB (11747773_x_at) / RFU PRSS12 (11739890_at) / Fold change /veh PRSS12 (11739890_at) / RFU BIN1 (11741810_x_at) / Fold change /veh BIN1 (11741810_x_at) / RFU WNT11 (11732464_a_at) / Fold change /veh WNT11 (11732464_a_at) / RFU C10orf10 (11716521_a_at) / Fold change /veh C10orf10 (11716521_a_at) / RFU C5orf56 (11738089_at) / Fold change /veh C5orf56 (11738089_at) / RFU CYB561 (11721691_x_at) / Fold change /veh CYB561 (11721691_x_at) / RFU ANKRD19P (11752326_a_at) / Fold change /veh ANKRD19P (11752326_a_at) / RFU OR2T12 /// OR2T33 /// OR2T8 (11738714_s_at) / Fold change /veh OR2T12 /// OR2T33 /// OR2T8 (11738714_s_at) / RFU VCAN (11748164_a_at) / Fold change /veh VCAN (11748164_a_at) / RFU JSRP1 (11732532_at) / Fold change /veh JSRP1 (11732532_at) / RFU KRTAP10-11 (11738290_x_at) / Fold change /veh KRTAP10-11 (11738290_x_at) / RFU MYO3A (11730013_a_at) / Fold change /veh MYO3A (11730013_a_at) / RFU EBF3 (11725865_a_at) / Fold change /veh EBF3 (11725865_a_at) / RFU CAMK2N1 (11719241_x_at) / Fold change /veh CAMK2N1 (11719241_x_at) / RFU C5orf56 (11738088_a_at) / Fold change /veh C5orf56 (11738088_a_at) / RFU OLFML3 (11715873_a_at) / Fold change /veh OLFML3 (11715873_a_at) / RFU LOC100653217 /// NTM (11731650_a_at) / Fold change /veh LOC100653217 /// NTM (11731650_a_at) / RFU MAPK11 (11762145_a_at) / Fold change /veh MAPK11 (11762145_a_at) / RFU FIZ1 (11724087_x_at) / Fold change /veh FIZ1 (11724087_x_at) / RFU OASL (11726364_x_at) / Fold change /veh OASL (11726364_x_at) / RFU SOX15 (11748057_x_at) / Fold change /veh SOX15 (11748057_x_at) / RFU CD79A (11719716_a_at) / Fold change /veh CD79A (11719716_a_at) / RFU HIST1H1D (11736915_at) / Fold change /veh HIST1H1D (11736915_at) / RFU CASKIN2 (11723855_a_at) / Fold change /veh CASKIN2 (11723855_a_at) / RFU LOC730098 (11760151_x_at) / Fold change /veh LOC730098 (11760151_x_at) / RFU OR4N2 (11742367_at) / Fold change /veh OR4N2 (11742367_at) / RFU PRRT2 (11749266_a_at) / Fold change /veh PRRT2 (11749266_a_at) / RFU SNX32 (11753110_a_at) / Fold change /veh SNX32 (11753110_a_at) / RFU CDHR5 (11726645_a_at) / Fold change /veh CDHR5 (11726645_a_at) / RFU RCAN1 (11760418_a_at) / Fold change /veh RCAN1 (11760418_a_at) / RFU FAM167A (11723789_a_at) / Fold change /veh FAM167A (11723789_a_at) / RFU FAM26E (11764081_at) / Fold change /veh FAM26E (11764081_at) / RFU ISYNA1 (11749810_s_at) / Fold change /veh ISYNA1 (11749810_s_at) / RFU ACY1 (11761880_at) / Fold change /veh ACY1 (11761880_at) / RFU 11764098_at / Fold change /veh 11764098_at / RFU SAMD14 (11745864_x_at) / Fold change /veh SAMD14 (11745864_x_at) / RFU NPB (11741838_a_at) / Fold change /veh NPB (11741838_a_at) / RFU TMPRSS6 (11731388_a_at) / Fold change /veh TMPRSS6 (11731388_a_at) / RFU KRTAP10-2 (11738614_at) / Fold change /veh KRTAP10-2 (11738614_at) / RFU ARHGAP8 /// PRR5-ARHGAP8 (11727945_x_at) / Fold change /veh ARHGAP8 /// PRR5-ARHGAP8 (11727945_x_at) / RFU KRTAP5-7 /// NADSYN1 (11734609_at) / Fold change /veh KRTAP5-7 /// NADSYN1 (11734609_at) / RFU RASL12 (11751679_a_at) / Fold change /veh RASL12 (11751679_a_at) / RFU CDKN2B (11736163_a_at) / Fold change /veh CDKN2B (11736163_a_at) / RFU PRF1 (11729649_at) / Fold change /veh PRF1 (11729649_at) / RFU, ZNF638 /// ZNF638-IT1 / Fold change vs veh, ZNF638 /// ZNF638-IT1 / RFU, PANK3 / Fold change vs veh, PANK3 / RFU, SH3YL1 / Fold change vs veh, SH3YL1 / RFU, ZEB2 / Fold change vs veh, ZEB2 / RFU, NRIP1 / Fold change vs veh, NRIP1 / RFU, PTTG1IP / Fold change vs veh, PTTG1IP / RFU, CAPN2 / Fold change vs veh, CAPN2 / RFU, MED14 / Fold change vs veh, MED14 / RFU, SNORA58 / Fold change vs veh, SNORA58 / RFU, C1orf63 / Fold change vs veh, C1orf63 / RFU, LRRFIP1 / Fold change vs veh, LRRFIP1 / RFU, NDUFAF7 / Fold change vs veh, NDUFAF7 / RFU, SLC12A2 / Fold change vs veh, SLC12A2 / RFU, IBTK / Fold change vs veh, IBTK / RFU, ESF1 / Fold change vs veh, ESF1 / Fold change vs veh, TMEM50B / RFU, TAOK1 / Fold change vs veh, TAOK1 / RFU, ACBD3 / Fold change vs veh, ACBD3 / RFU, TMA16 / Fold change vs veh, TMA16 / RFU, RWDD3 / Fold change vs veh, RWDD3 / RFU, BCAT1 / Fold change vs veh, BCAT1 / RFU, EDEM3 / Fold change vs veh, EDEM3 / RFU, TMEM33 / Fold change vs veh, TMEM33 / RFU, WDR75 / Fold change vs veh, WDR75 / RFU, AHCTF1 / Fold change vs veh, AHCTF1 / RFU, TFRC / Fold change vs veh, TFRC / RFU, ZDHHC17 / Fold change vs veh, ZDHHC17 / RFU, NOM1 / Fold change vs veh, NOM1 / RFU, ARL8B / Fold change vs veh, ARL8B / RFU, ZBTB11 / Fold change vs veh, ZBTB11 / RFU, TAMM41 / Fold change vs veh, TAMM41 / RFU, KIAA1704 /// LOC100996395 / Fold change vs veh, KIAA1704 /// LOC100996395 / RFU, ING1 / Fold change vs veh, ING1 / RFU, TRMT61B / Fold change vs veh, TRMT61B / RFU, FUBP3 / Fold change vs veh, FUBP3 / RFU, TP53 / Fold change vs veh, TP53 / RFU, TNKS2 / Fold change vs veh, TNKS2 / RFU, ZFP14 / Fold change vs veh, ZFP14 / RFU, ACTR2 / Fold change vs veh, ACTR2 / RFU, PPP3R1 / Fold change vs veh, PPP3R1 / RFU, PIK3R1 / Fold change vs veh, PIK3R1 / RFU, HNRNPA1 / Fold change vs veh, HNRNPA1 / RFU, RNF170 / Fold change vs veh, RNF170 / RFU, ZNF28 / Fold change vs veh, ZNF28 / RFU, RNGTT / Fold change vs veh, RNGTT / RFU, OGT / Fold change vs veh, OGT / RFU, BRD1 / Fold change vs veh, BRD1 / RFU, MARS / Fold change vs veh, MARS / RFU, ZNF655 / Fold change vs veh, ZNF655 / RFU, FAHD1 / Fold change vs veh, FAHD1 / RFU, BDP1 / Fold change vs veh, BDP1 / RFU, LRRCC1 / Fold change vs veh, LRRCC1 / RFU, ARID1A / Fold change vs veh, ARID1A / RFU, ZNF146 / Fold change vs veh, ZNF146 / RFU, ZNF330 / Fold change vs veh, ZNF330 / RFU, GPN3 / Fold change vs veh, GPN3 / RFU, C9orf123 / Fold change vs veh, C9orf123 / RFU, N4BP2L2 / Fold change vs veh, N4BP2L2 / RFU, ARFIP1 / Fold change vs veh, ARFIP1 / RFU, FAM179B / Fold change vs veh, FAM179B / RFU, BCL10 / Fold change vs veh, BCL10 / RFU, UHRF1BP1L / Fold change vs veh, UHRF1BP1L / RFU, BET1 / Fold change vs veh, BET1 / RFU, CNOT2 / Fold change vs veh, CNOT2 / RFU, ZNF268 / Fold change vs veh, ZNF268 / Fold change vs veh, ZNF507 / RFU, DGCR2 / Fold change vs veh, DGCR2 / RFU, WDSUB1 / Fold change vs veh, WDSUB1 / Fold change vs veh, HSP90B1 /// MIR3652 / RFU, ADSS / Fold change vs veh, ADSS / RFU, GK / Fold change vs veh, GK / RFU, ZNF148 / Fold change vs veh, ZNF148 / RFU, TAF9 / Fold change vs veh, TAF9 / RFU, SLC1A5 / Fold change vs veh, SLC1A5 / RFU, SLMO2 / Fold change vs veh, SLMO2 / RFU, ABCC4 / Fold change vs veh, ABCC4 / RFU, LOC101060439 /// RAP1B / Fold change vs veh, LOC101060439 /// RAP1B / RFU, RFX7 / Fold change vs veh, RFX7 / RFU, GTPBP10 / Fold change vs veh, GTPBP10 / RFU, CNEP1R1 / Fold change vs veh, CNEP1R1 / RFU, BIVM-ERCC5 /// ERCC5 / Fold change vs veh, BIVM-ERCC5 /// ERCC5 / RFU, ILF3 / Fold change vs veh, ILF3 / RFU 11762660_at / Fold change /veh 11762660_at / RFU VCAN (11757783_s_at) / Fold change /veh VCAN (11757783_s_at) / RFU DDX43 (11728927_at) / Fold change /veh DDX43 (11728927_at) / RFU KRT8 (11758188_x_at) / Fold change /veh KRT8 (11758188_x_at) / RFU NKD1 (11759106_at) / Fold change /veh NKD1 (11759106_at) / RFU SRD5A1 (11742802_a_at) / Fold change /veh SRD5A1 (11742802_a_at) / RFU TPSAB1 /// TPSB2 (11721975_s_at) / Fold change /veh TPSAB1 /// TPSB2 (11721975_s_at) / RFU GSTM3 (11746129_a_at) / Fold change /veh GSTM3 (11746129_a_at) / RFU IL23R (11737362_x_at) / Fold change /veh IL23R (11737362_x_at) / RFU TMEM51 (11727254_a_at) / Fold change /veh TMEM51 (11727254_a_at) / RFU PIWIL2 (11732686_x_at) / Fold change /veh PIWIL2 (11732686_x_at) / RFU ORM1 (11744905_x_at) / Fold change /veh ORM1 (11744905_x_at) / RFU CCDC152 (11743942_at) / Fold change /veh CCDC152 (11743942_at) / RFU ECM1 (11717891_a_at) / Fold change /veh ECM1 (11717891_a_at) / RFU IL23R (11748794_a_at) / Fold change /veh IL23R (11748794_a_at) / RFU TNFAIP8L3 (11732012_x_at) / Fold change /veh TNFAIP8L3 (11732012_x_at) / RFU MBOAT4 (11741988_at) / Fold change /veh MBOAT4 (11741988_at) / RFU 11764193_at / Fold change /veh 11764193_at / RFU TMEM53 (11763286_at) / Fold change /veh TMEM53 (11763286_at) / RFU MAGEB2 (11727129_at) / Fold change /veh MAGEB2 (11727129_at) / RFU TMEM200A (11744735_a_at) / Fold change /veh TMEM200A (11744735_a_at) / RFU CCDC152 (11751479_a_at) / Fold change /veh CCDC152 (11751479_a_at) / RFU FAM211A (11726209_a_at) / Fold change /veh FAM211A (11726209_a_at) / RFU RGS16 (11746705_a_at) / Fold change /veh RGS16 (11746705_a_at) / RFU VCAN (11755009_s_at) / Fold change /veh VCAN (11755009_s_at) / RFU RHOB (11743442_s_at) / Fold change /veh RHOB (11743442_s_at) / RFU RGS16 (11720943_a_at) / Fold change /veh RGS16 (11720943_a_at) / RFU RGS16 (11720944_at) / Fold change /veh RGS16 (11720944_at) / RFU, VPS4B / Fold change vs veh, VPS4B / RFU, CREB1 / Fold change vs veh, CREB1 / RFU, DNAJC13 / Fold change vs veh, DNAJC13 / RFU, GNAQ / Fold change vs veh, GNAQ / RFU, CDK5R1 / Fold change vs veh, CDK5R1 / RFU, ZRANB3 / Fold change vs veh, ZRANB3 / RFU, CUL4A / Fold change vs veh, CUL4A / RFU, CCNY / Fold change vs veh, CCNY / RFU, UFL1 / Fold change vs veh, UFL1 / RFU, COG3 / Fold change vs veh, COG3 / RFU, DIAPH2 / Fold change vs veh, DIAPH2 / RFU, SKA2 / Fold change vs veh, SKA2 / RFU, AFF3 / Fold change vs veh, AFF3 / RFU, LMF1 / Fold change vs veh, LMF1 / RFU, IPO11 / Fold change vs veh, IPO11 / RFU, DFFB / Fold change vs veh, DFFB / RFU, FOXP1 / Fold change vs veh, FOXP1 / RFU, CARD8 / Fold change vs veh, CARD8 / RFU, STRN3 / Fold change vs veh, STRN3 / RFU, ADK / Fold change vs veh, ADK / RFU, RASSF2 / Fold change vs veh, RASSF2 / RFU, WIPF1 / Fold change vs veh, WIPF1 / RFU, LARP1B / Fold change vs veh, LARP1B / RFU, RASA1 / Fold change vs veh, RASA1 / RFU, RB1 / Fold change vs veh, RB1 / RFU, PPFIA1 / Fold change vs veh, PPFIA1 / RFU, MAT2A / Fold change vs veh, MAT2A / RFU, CCT5 / Fold change vs veh, CCT5 / RFU, WDR92 / Fold change vs veh, WDR92 / RFU, CUX1 / Fold change vs veh, CUX1 / RFU, TTC7A / Fold change vs veh, TTC7A / RFU, TMEM135 / Fold change vs veh, TMEM135 / RFU, DEPTOR / Fold change vs veh, DEPTOR / RFU, CPM / Fold change vs veh, CPM / RFU, DNAJB6 / Fold change vs veh, DNAJB6 / RFU, CACNA2D3 / Fold change vs veh, CACNA2D3 / RFU, DTX4 / Fold change vs veh, DTX4 / RFU, TFCP2 / Fold change vs veh, TFCP2 / RFU, GMCL1 /// GMCL1P1 / Fold change vs veh, GMCL1 /// GMCL1P1 / RFU, AEBP2 / Fold change vs veh, AEBP2 / RFU, SNHG1 /// SNORD22 /// SNORD25 /// SNORD26 /// SNORD27 /// SNORD28 /// SNORD29 /// SNORD31 / Fold change vs veh, SNHG1 /// SNORD22 /// SNORD25 /// SNORD26 /// SNORD27 /// SNORD28 /// SNORD29 /// SNORD31 / Fold change (Aza/veh), C12orf56 (ProbeSet 11735607_a_at) / Fold change (ACY-1035/veh), C12orf56 (ProbeSet 11735607_a_at) / Fold change (Aza/veh), FGFR1OP (ProbeSet 11751329_s_at) / Fold change (ACY-1035/veh), FGFR1OP (ProbeSet 11751329_s_at) / Fold change (Aza/veh), VPS36 (ProbeSet 11739960_a_at) / Fold change (ACY-1035/veh), VPS36 (ProbeSet 11739960_a_at) / RFU SYPL1 (11715823_x_at) / Fold change /veh SYPL1 (11715823_x_at) / RFU IGFBP7 (11715501_s_at) / Fold change /veh IGFBP7 (11715501_s_at) / RFU REEP3 (11722064_at) / Fold change /veh REEP3 (11722064_at) / RFU IGLL1 (11728026_x_at) / Fold change /veh IGLL1 (11728026_x_at): dose or concentration left out as unconfirmed
Details: MV-4-11 cells, 48 hours

Nc1ccc(-c2cccs2)cc1NC(=O)c1ccc2c(c1)cc(C1CC1)n2CCN1CCOCC1 [ACY-1035]
RFU VCAN (11755009_s_at): 8.96 RFU
